Values of other authors as cited in US9517201B2, “Nanocarrier and nanogel compositions” (RUTGERS, THE STATE UNIVERSITY OF NEW JERSEY, priority 2008, dated 2016).
Structures can show the parent of a compound that is named as a salt.

solubility of Doxorubicin Hydrochloride in water: ~10000 µg/mL
Compound: COc1cccc2c1C(=O)c1c(O)c3c(c(O)c1C2=O)C[C@@](O)(C(=O)CO)C[C@@H]3O[C@H]1C[C@H](N)[C@H](O)[C@H](C)O1 [Doxorubicin Hydrochloride, Doxorubicin hydrochloride]
